Experimental data taken from patent US20100041590A1, “Compounds” (priority 2006, published 2010).
Where a name gives a salt, the structure may show the parent alone.

These compounds were tested against T1, SCD (SCD-containing rat microsomes) (Rattus norvegicus, UniProt P07308) (assay: in vitro assay for SCD activity based on production of [3H]H2O from [9,10-3H] stearoyl Coenzyme A). Details: SCD-containing rat microsomes (2 μg protein), substrate 1 μM, 6 min incubation, 5 min preincubation with compound; read-out: average pIC50 value, in vitro assay for SCD activity (converted).
T1 construct: SCD-containing rat microsomes (2 μg protein); from tissue
T1 sequence (P07308 1-358): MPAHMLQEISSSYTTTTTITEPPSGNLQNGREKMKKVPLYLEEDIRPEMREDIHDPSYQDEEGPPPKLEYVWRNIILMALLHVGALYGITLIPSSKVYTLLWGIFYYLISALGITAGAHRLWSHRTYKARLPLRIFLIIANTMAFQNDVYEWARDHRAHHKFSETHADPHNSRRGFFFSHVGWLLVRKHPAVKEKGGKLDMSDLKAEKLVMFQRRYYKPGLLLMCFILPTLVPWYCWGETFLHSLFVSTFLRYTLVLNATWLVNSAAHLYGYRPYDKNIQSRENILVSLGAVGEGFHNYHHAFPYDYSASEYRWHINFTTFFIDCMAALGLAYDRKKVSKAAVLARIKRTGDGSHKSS
Type: biochemical
Method: The compounds of the present invention may be analysed in vitro for SCD activity using an assay based on the production of [^3H]H2O, which is released during the enzyme-catalyzed generation of the monounsaturated fatty acyl CoA product. The assay is performed in a 96-well filtration plates. The titrated substrate used in the assay is the [9,10-^3H] stearoyl Coenzyme A. After incubation for 6 minutes of SCD-containing rat microsomes (2 μg protein) and substrate (1 μM), the labelled fatty acid acyl-CoA species and microsomes are absorbed with charcoal and separated from [^3H]H2O by centrifugation. The formation of [^3H]H2O is used as a measure of SCD activity. Compounds at concentrations starting at 10 μM to 0.1 nM or vehicle (DMSO) are preincubated for 5 minutes with the microsomes before addition of the substrate. The concentration-responses are fitted with sigmoidal curves to obtain IC50 values.

| IC50 | Structure (SMILES) |
| --- | --- |
| < 3.16 µM | CC(C)COc1ccc(Cl)cc1Cn1nc(NC(=O)c2ccc3c(c2)CCNC3)cc1C1CC1 [Example 2, N-[1-({5-chloro-2-[(2-methylpropyl)oxy]phenyl}methyl)-5-cyclopropyl-1H-pyrazol-3-yl]-1,2,3,4-tetrahydro-6-isoquinolinecarboxamide hydrochloride] |
| < 3.16 µM | CCc1cc(NC(=O)c2ccc3c(c2)CCNC3)nn1Cc1cc(Cl)ccc1OCC(C)C [Example 1, N-[1-({5-chloro-2-[(2-methylpropyl)oxy]phenyl}methyl)-5-ethyl-1H-pyrazol-3-yl]-1,2,3,4-tetrahydro-6-isoquinolinecarboxamide hydrochloride] |
| > 10 µM | CC(C)COc1ccc(Cl)cc1Cn1nc(C(=O)Nc2ccc3c(c2)CCNC3)cc1C1CC1 [1-({5-chloro-2-[(2-methylpropyl)oxy]phenyl}methyl)-5-cyclopropyl-N-(1,2,3,4-tetrahydro-6-isoquinolinyl)-1H-pyrazole-3-carboxamide hydrochloride] |
| 3.16 to 10 µM | CCCc1cc(C(=O)Nc2ccc3c(c2)CCNC3)nn1Cc1cc(Cl)ccc1OCC(C)C [1-({5-chloro-2-[(2-methylpropyl)oxy]phenyl}methyl)-5-propyl-N-(1,2,3,4-tetrahydro-6-isoquinolinyl)-1H-pyrazole-3-carboxamide hydrochloride] |
